Experimental data as given in US11964943B2, “3,5-diarylidenyl-n-substituted-piperid-4-one-derived inhibitors of Stat3 pathway activity and uses thereof” (priority 2017, dated 2024).
Values joined by “and” are separate entries in the source; they are usually repeats but may differ in a detail not shown here. Equal entries are not always repeated.

Tests used:
DU145 cells = experiment: SRB growth inhibition assay for radiosensitization; format: cell-based; conditions: 18 h pretreatment, then irradiation
Protocol: Stock cultures were trypsinised and 2500 cells were seeded into each well of 96-well, flat-bottomed microtiter plates, in a volume of 200 μl and left to adhere overnight at 37° C. The desired concentrations of IE-8 or curcumin were prepared in culture medium immediately before use. Medium in wells was removed and 200 μl of drug medium mixture was added. Three replicates were used for each drug concentration. One solvent control lane was included in each experiment. Plates were incubated for 18 h at 37° C. At the end of the drug treatment, the media was replaced with 200 μl of fresh media. Subsequently the plates were irradiated at 0, 2, 4 and 6 Gy. The plates were incubated for three days in a humidified incubator at 37° C. with 5% CO2. The media in the wells was removed and 100 μl of ice-cold 10% (wt/vol) trichloroethanoic acid (TCA) was added per well, to fix the cells. […] Plates were left at room temperature for 20 minutes, and the optical density (OD) at 540 nm was determined using a microplate reader (Thermo). Growth inhibition was expressed as the fraction of control A540 (surviving fraction) and calculated from the following equation; fraction of control A540=OD of untreated control at each radiation dose. The mean surviving fraction for each drug concentration for each radiation dose was calculated.

[1] = tested on: A2780-cisplatin resistant spheroids; experiment: CellTiter-Glo 3D cell viability assay, A2780-cisplatin resistant spheroids; format: cell-based; conditions: 96 h exposure, 3D CellTiter-Glo
Protocol: (§1) For cell spheroid formation, HCT116-oxaliplatin resistant cells, A2780-cisplatin resistant cells, and HT1080 cells were seeded in Corning® Spheroid opaque-walled 96 well Microplates (ultra-low attachment; Nuclon™ Sphera™, Thermofisher) at densities of 2000 cells/well in 100 μl of cell solution and allowed to grow for 4 days, before any manipulation.
At the end of drug incubation, both the plates and the CellTitre-Glo® reagent (previously thawn overnight in the fridge) were equilibrated at room temperature for at least 30 min. Subsequently, 100 μl of cell solution were carefully removed from each well, without disrupting the spheroid and equal volume of CellTitre-Glo® reagent was added. Cell lysis was performed by vigorously shaking the plate for 5 min. To stabilize the luminescent signal, the plate was incubated in the dark at RT for another 30 min before luminescence was recorded on a plate reader. The cell viability of treated samples was normalised to the untreated controls.
The cytotoxicity studies in spheroids were conducted using the CellTiter-Glo® 3D Cell viability assay (Promega) following the instructions of the manufacturer.

A549 cells = experiment: SRB growth inhibition and combination index with cisplatin, A549; format: cell-based, human
Protocol: The affected fractions were calculated from the SRB or MTT assay absorbance values and were registered to derive the respective CI values and isobolograms. A CI value of less than 1 (one) indicates synergy.
(§2) The SRB assay was used to assess cell growth inhibition by IE-8 alone and in combination with cisplatin. […] For combination studies drug treatments were sequential with IE-8 applied first followed by cisplatin for 1 h. […] Absorbance was read at 540 nm and results were normalized to untreated controls. For analysis of GC50 values and statistical significance, non-linear regression analysis with a comparison of fits was performed with the GraphPad Prism 6.0 software.
as §2, with “Drug Combination studies. Sulforhodamine B (SRB) Cell Growth Inhibition Assay. The” for “The”, “8 h” for “IE-8”

[2] = tested on: A2780-cisplatin resistant spheroids; experiment: Spheroid diameter measurement; format: cell-based; conditions: for Diameter (μm): 96 h
Protocol: as §1
The diameters of spheroid cells were determined using Cell^F Imaging Software. A diameter corresponds to the mean value of one horizontal and one vertical measurement.

[3] = tested on: HT1080 fibrosarcoma spheroids; experiment: Spheroid invasion assay; format: cell-based; conditions: 3 μM, 90 h observation
Protocol: Multicellular spheroids from HT-1080 cells were grown for 4 days in RPMI 1640 medium in 96-well plates (Nunclon Sphera, Thermo Fisher) and their size was measured with an inverted microscope (Olympus CKX41, 4× objective) and Cell^F software. […] Growth factor reduced Matrigel (Becton Dickinson) was thawed on ice and diluted in 4° C. cold medium to a final concentration of 300 μg/mL with or without IE-8. One hundred fifty microliter of these solutions were added to the wells containing spheroids in 50 μL medium. The plate was incubated in a humidified atmosphere with 5% CO2 in air at 37° C. Both untreated and treated spheroids were monitored simultaneously with a JuliBr live cell analyzer (NanoEntek) for 90 h to visualize spheroid invasion, and every hour the relative cross-sectional area of the spheroids was measured.

With `COc1cc(/C=C2\CN(c3ccccc3)C/C(=C\c3cc(OC)c(OC)c(OC)c3)C2=O)cc(OC)c1OC` [IE-8, 3,5-Di(3,4,5-trimethoxybenzylidene)-1-phenylpiperidin-4-one] the “radiosensitization (cell survival, SRB)” value (DU145 cells) was “more efficient at reducing cell survival”, the IC50 [1] was 3.01 ± 0.41 µM and the “combination index (CI) with cisplatin” value (A549 cells; 10 μM IE-8 1 h then cisplatin 1 h) was “below 1”. For the same compound, the “combination index (CI) with cisplatin” value (A549 cells; IE-8 18 h then cisplatin 1 h, fixed ratio 1:50) was “below 1”, the spheroid size ([2]; 10 μM IE-8, 96 hours) was “markedly decreases the size of the spheroid” and the “Diameter (μm)” value ([2]; IE-8 1.0 μM) was 1176.0 μm. The “Diameter (μm)” value ([2]; IE-8 2.0 μM) was 1037.0 μm, the “Diameter (μm)” value ([2]; IE-8 3.0 μM) was 990.9 μm and the “Diameter (μm)” value ([2]; IE-8 4.0 μM) was 820 μm and 819.7 μm. The “Diameter (μm)” value ([2]; IE-8 5.0 μM) was 619.8 μm and the “rate of confluence (invasion) of spheroids in matrigel” value [3] was “markedly reduced and also delayed”.
